Measurements: article PMC12191924, “A new naphthalene-based fluorogenic substrate for cytochrome P450 4A11” (Biochemical Journal, 2025)
Like-named read-outs stand apart in the source and are kept apart here.

System: pooled human liver microsomes (HLM)
Assay: Substrate saturation profiles of MONACRA metabolism by pooled HLM, global fitting
Assay type: in vitro ADME
Details: for Km: global fitting of seven pooled HLM preparations
From the text: To probe the MONACRA metabolism by the human liver P450 system, we explored the SSPs of our new fluorogenic substrate by seven different pooled HLM preparations with P450 pool composition characterized by a global proteomics toolkit. […] The first two principal components cover 99.4% of the overall differences between the individual SSPs. While the first principal component mainly reflects the differences in SSP amplitude, the second PC is responsible for the changes in the contribution of the high- and low-affinity components. Global fitting of the dataset with a combination of three Michaelis–Menten equations yielded the components with K M values of 21, 213, and 730 µM (Figure 10C). The combinations of these three Michaelis–Menten components approximate all individual SSPs of the dataset with a square correlation coefficient (R ^2) higher than 0.998.
Figure 10: Substrate saturation profiles (SSPs) of 3-(6-methoxynaphthalen-2-yl)acrylic acid (MONACRA) metabolism by seven pooled preparations of human liver microsomes (HLMs) and their global analysis. The HLM preparations used in this study and their designations are described in the “Materials and Methods” section of the article. […] These two principal components cover 99.4% of the overall differences between the SSPs. […] The substance label MONACRA is taken from the axis title, as no other label is printed.
This study used preparations of pooled HLMs from 50, 150, or 200 donors (mixed gender). The preparations CDN, DNJ, and WGP were INVITROCYP 150-Donor Human Liver Microsomes obtained from BioIVT Corporation (Westbury, NY). Lot EGW is INVITROCYP M-Class 50-Donor HLM procured from the same company. Lots 1,910,096 and 1,210,347 were XTreme 200 Mixed Gender HLM (200 donors) purchased from XenoTech LLC (Kansas City, KS), currently a part of BioIVT. Lot 2,110,263 corresponds to mixed gender HLM from 50 donors from the same company. These lots are referred to herein as X096, X347, and X263, respectively. The supplier of the HLM preparations used in our studies, BioIVT Corporation, has declared to adhere to the regulations of the Department of Health and Human Services for the protection of human subjects (45 CFR §46.116 and §46.117) and Good Clinical Practice, (ICH E6) in obtaining the samples of human tissues used for producing the preparations of human subcellular fractions available from these companies.
The MONACRA metabolism experiments were conducted with 12 MONACRA stock solutions in the Incubation Buffer (0.1 M Hepes buffer pH 7.4 containing 60 mM KCl) with concentrations ranging from 0 to 3.3 mM prepared with serial dilution. A 0.3 M stock solution of MONACRA in DMSO was diluted by the Incubation Buffer to prepare the most concentrated (3.3 mM) solution in the series. This series of stock solutions provided the MONACRA concentrations in the incubation mixture decreasing from 825 to 0 µM with a dilution factor of 1.73333 (≈√3). The procedure of preparing the multiwell plates for activity assays was similar to that described earlier for FA-based assays. The prepared plate was placed into a heater-shaker module with a PCR-plate adapter in location 1 of the OT-2 deck. Suspensions of microsomes were diluted to the desired concentration (0.02–0.1 µM P450 for recombinant enzymes and 0.3–1 mg/ml for HLM samples) and placed into all eight wells of the first row of a PCR plate (96-well semi-skirted PCR plate, BrandTech Scientific Inc., Essex, CT), 255 µl per well. The PCR plate was inserted into a pre-cooled PCR-plate cooling block (Eppendorf, Hamburg, Germany) and placed at position 5 of the OT-2 deck. An Azzota deep-well plate placed in location 6 contained 0.4 ml of 0.3 M solution trichloroacetic acid as a quenching reagent. The second row of the same plate contained 0.6 ml of 2.4 molar Na-glycine buffer, pH 10.4. […]

[1] = across seven pooled HLM preparations

With `COc1ccc2cc(C=CC(=O)O)ccc2c1` [MONACRA, 3-(6-methoxynaphthalen-2-yl)acrylic acid] the “F 1 (fractional contribution of high-affinity phase)” value (HLM sample CDN) was 0.1%, the “F 2 (fractional contribution of middle-affinity phase)” value (HLM sample CDN) was 68.7% and the “F 3 (fractional contribution of low-affinity phase)” value (HLM sample CDN) was 31.2%. The “F 1 (fractional contribution of high-affinity phase)” value (HLM sample DNJ) was 0.5%, the “F 2 (fractional contribution of middle-affinity phase)” value (HLM sample DNJ) was 91.6% and the “F 3 (fractional contribution of low-affinity phase)” value (HLM sample DNJ) was 7.9%. For the same compound, the “F 1 (fractional contribution of high-affinity phase)” value (HLM sample EGW) was 2.5%, the “F 2 (fractional contribution of middle-affinity phase)” value (HLM sample EGW) was 97.5% and the “F 3 (fractional contribution of low-affinity phase)” value (HLM sample EGW) was 0.0%. The “F 1 (fractional contribution of high-affinity phase)” value (HLM sample WGP) was 0.0%, the “F 2 (fractional contribution of middle-affinity phase)” value (HLM sample WGP) was 34.4% and the “F 3 (fractional contribution of low-affinity phase)” value (HLM sample WGP) was 65.6%. The “F 1 (fractional contribution of high-affinity phase)” value (HLM sample X096) was 9.8%, the “F 2 (fractional contribution of middle-affinity phase)” value (HLM sample X096) was 0.0% and the “F 3 (fractional contribution of low-affinity phase)” value (HLM sample X096) was 90.2%. The “F 1 (fractional contribution of high-affinity phase)” value (HLM sample X263) was 21.7%, the “F 2 (fractional contribution of middle-affinity phase)” value (HLM sample X263) was 21.5% and the “F 3 (fractional contribution of low-affinity phase)” value (HLM sample X263) was 56.8%. The “fraction of the high-affinity phase, average” value [1] was 5.5%, the “fraction of the lowest affinity component, average” value [1] was 45.3% and the “fraction of the lowest affinity component, range” value [1] was 0–90%. For the same compound, the “fraction of the middle-affinity phase, average” value [1] was 49.2%, the “fraction of the middle-affinity phase, range” value [1] was 0–100% and the Km (read-out: KM of high-affinity Michaelis–Menten component) was 21 µM. For the same compound, the Km (read-out: KM of low-affinity Michaelis–Menten component) was 730 µM and the Km (read-out: KM of middle-affinity Michaelis–Menten component) was 213 µM.
